Measured values from ChEMBL document CHEMBL5360672, “Identification of Novel Dual-Target Estrogen Receptor α Degraders with Tubulin Inhibitory Activity for the Treatment of Endocrine-Resistant Breast Cancer” (J Med Chem, 2023).
The source made the active and inactive calls. No cut-off for these calls is given here.

How the values were obtained:
[1] = species on record: Homo sapiens; assay: Selectivity ratio of relative binding affinity for human ERalpha to relative binding affinity to human ERbeta
[2] = target: Estrogen receptor beta (Homo sapiens) (UniProt Q92731); assay: Binding affinity to human ERbeta assessed as relative binding affinity incubated under vibration for 1 min followed by 2 hrs incubation under dark condition by fluorescence polarization assay relative to estradiol; conditions: time 121.0 min
Chain of Estrogen receptor beta (Homo sapiens) (Q92731 whole entry): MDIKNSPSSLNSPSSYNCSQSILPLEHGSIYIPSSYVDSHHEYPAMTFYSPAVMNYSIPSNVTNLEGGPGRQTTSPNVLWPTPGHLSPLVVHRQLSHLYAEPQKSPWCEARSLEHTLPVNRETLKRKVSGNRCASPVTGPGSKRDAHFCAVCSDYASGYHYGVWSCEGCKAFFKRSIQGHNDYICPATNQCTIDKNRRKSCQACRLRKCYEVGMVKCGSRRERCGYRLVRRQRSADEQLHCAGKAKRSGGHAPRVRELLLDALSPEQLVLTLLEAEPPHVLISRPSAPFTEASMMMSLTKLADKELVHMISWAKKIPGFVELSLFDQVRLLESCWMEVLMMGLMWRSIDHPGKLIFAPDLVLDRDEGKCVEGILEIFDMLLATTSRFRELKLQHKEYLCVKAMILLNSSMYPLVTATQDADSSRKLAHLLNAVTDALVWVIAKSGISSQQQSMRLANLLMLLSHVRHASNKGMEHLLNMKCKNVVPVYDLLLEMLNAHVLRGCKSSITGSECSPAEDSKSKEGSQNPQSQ

[3] = tested on: LCC2; assay: Induction of cell cycle arrest in human LCC2 cells assessed as accumulation of cells at G2/M phase incubated for 48 hrs by flow cytometry analysis; format: functional, cell-based; conditions: dose 6-24 µM
[4] = tested on: Estrogen receptor (Homo sapiens), P03372 [Y537S]; assay: Induction of ERalpha degradation in human T47D cells harboring ERalpha Y537S mutant at 0.5 to 5 uM incubated for 24 hrs by Western blot analysis; format: cell-based; conditions: dose 0.5-5 µM
Chain of Estrogen receptor (Homo sapiens), P03372 [Y537S] (P03372 whole entry Y537S): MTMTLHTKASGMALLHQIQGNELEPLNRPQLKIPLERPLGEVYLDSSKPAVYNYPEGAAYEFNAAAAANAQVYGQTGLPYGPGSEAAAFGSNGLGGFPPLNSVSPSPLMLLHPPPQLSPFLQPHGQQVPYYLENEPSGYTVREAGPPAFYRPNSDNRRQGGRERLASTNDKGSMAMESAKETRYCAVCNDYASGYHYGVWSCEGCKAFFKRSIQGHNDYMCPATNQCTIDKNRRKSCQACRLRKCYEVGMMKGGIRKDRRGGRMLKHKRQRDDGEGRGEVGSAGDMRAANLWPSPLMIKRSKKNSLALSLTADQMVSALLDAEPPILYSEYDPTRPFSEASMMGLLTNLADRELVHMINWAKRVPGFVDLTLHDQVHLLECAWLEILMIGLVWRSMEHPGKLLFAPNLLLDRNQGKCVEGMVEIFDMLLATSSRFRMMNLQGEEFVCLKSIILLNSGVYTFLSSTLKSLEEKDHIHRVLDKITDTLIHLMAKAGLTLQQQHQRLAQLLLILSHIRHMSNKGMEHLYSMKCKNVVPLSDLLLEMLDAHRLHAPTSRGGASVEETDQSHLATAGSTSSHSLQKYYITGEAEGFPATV

[5] = Selectivity index, ratio of IC50 for cytotoxicity against human MCF-10A cells to IC50 for antiproliferative activity against human MCF7 cells; format: toxicity, cell-based; conditions: MCF-10A cells and MCF7 cells, read-out: Ratio IC50
[6] = Toxicity in Balb/c nude mouse xenografted with human MCF7 cells assessed as effect on kidney morphology at 2 to 4 mg/kg, ip administered every other day for 20 days by H&E staining based analysis; format: organism-based; conditions: in vivo, 480 h, dose 2-4 mg/kg, time 20 day
[7] = target: T1, Estrogen receptor (Homo sapiens) (UniProt P03372); assay: Induction of ERalpha degradation in human MCF7 cells at 5 uM incubated for 24 hrs by Western blot analysis relative to SeCN-OBHSA derivatives; format: cell-based
T1 sequence (whole entry): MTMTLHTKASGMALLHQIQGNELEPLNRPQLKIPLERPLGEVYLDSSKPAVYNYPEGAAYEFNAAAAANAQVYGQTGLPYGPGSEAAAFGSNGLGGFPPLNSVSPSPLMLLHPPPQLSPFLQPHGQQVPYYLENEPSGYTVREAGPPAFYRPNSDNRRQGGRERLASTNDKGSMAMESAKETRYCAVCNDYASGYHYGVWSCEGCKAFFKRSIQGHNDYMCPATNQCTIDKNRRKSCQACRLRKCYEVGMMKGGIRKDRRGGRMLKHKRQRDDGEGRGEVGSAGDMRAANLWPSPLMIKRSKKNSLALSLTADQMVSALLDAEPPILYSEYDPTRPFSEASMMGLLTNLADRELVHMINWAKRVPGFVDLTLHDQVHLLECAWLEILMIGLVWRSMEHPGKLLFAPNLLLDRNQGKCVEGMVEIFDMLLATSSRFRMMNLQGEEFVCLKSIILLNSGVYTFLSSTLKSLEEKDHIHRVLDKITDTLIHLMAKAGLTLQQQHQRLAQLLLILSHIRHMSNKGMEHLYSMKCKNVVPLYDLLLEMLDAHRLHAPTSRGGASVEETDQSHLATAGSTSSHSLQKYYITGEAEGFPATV

[8] = Toxicity in Balb/c nude mouse xenografted with human MCF7 cells assessed as effect on heart morphology at 2 to 4 mg/kg, ip administered every other day for 20 days by H&E staining based analysis; format: organism-based; conditions: in vivo, 480 h, dose 2-4 mg/kg, time 20 day
[9] = tested on: T47D; assay: Antiproliferative activity against human T47D cells harboring ERalpha D538G mutant assessed as inhibition of cell proliferation incubated for 72 hrs by CCK8 assay; format: functional, cell-based
[10] = target: T2, Tubulin (Homo sapiens) (UniProt P68371+Q9H4B7+P0DPH7+P68366+Q13509+Q71U36+P04350+Q3ZCM7+P07437+P68363+Q9BQE3+Q6PEY2+Q13885+Q9BVA1+Q9BUF5); assay: Disruption of microtubule network in human MCF7 cells assessed as ruptured microtubule network at 2 uM incubated for 48 hrs by DAPI staining based confocal laser scanning microscopic analysis; format: cell-based
[11] = Toxicity in Balb/c nude mouse xenografted with human MCF7 cells assessed as body weight loss at 2 to 4 mg/kg, ip administered every other day for 20 days; format: organism-based; conditions: in vivo, 480 h, dose 2-4 mg/kg, time 20 day
[12] = target: T2, Tubulin (Homo sapiens); assay: Disruption of microtubule network in human LCC2 cells assessed as ruptured microtubule network at 4 uM incubated for 48 hrs by DAPI staining based confocal laser scanning microscopic analysis; format: cell-based

- Selectivity ratio [1]: 85.7
- RBA [2]: 0.1%
- Activity [4]: Active
- Activity [7]: Active
- IC50 [9]: 1670 nM
- Activity [10]: Active
- Activity [12]: Active
SMILES: N#C[Se]CCCCCC(=O)Nc1ccc(C2=C(c3ccc(O)cc3)C3CC(S(=O)(=O)N(CC(F)(F)F)c4ccccc4F)C2O3)cc1 (configuration not stated)
- Activity [3]: Dose-Dependent Effect
- selectivity ratio [5]: 264
- Activity [6]: Non-Toxic
- Activity [8]: Non-Toxic
- Activity [11]: Non-Toxic
